Common to all, as to assay: MIC determination, broth microdilution (CLSI)
Format in all cases: cell-based
In general terms: In broth dilution the organism is exposed to a series of concentrations in liquid medium.

Assay [1] relates to A. baumannii clinical isolate. As to conditions: Acinetobacter baumannii, Mueller Hinton Broth II, 37° C., 18-24 hours, read-out: Strain 7 MIC. Here is the method: (§1) Compounds of this invention were tested for antimicrobial activity by determining minimum inhibitory concentrations (MICs, in μg/mL) using the broth microdilution method according to the guidelines of the Clinical Laboratories and Standards Institute (“Methods for Dilution Antimicrobial Susceptibility Tests for Bacteria that Grow Aerobically”, Approved standard, 7th ed., Clinical and Laboratory Standards Institute (CLSI) Document M7-A8, Wayne, Pa., USA, 2009.). AZT: aztreonam (AZT) and ceftazidime (CAZ) were used as control antibiotics. Test compounds were dissolved in DMSO. The compounds were then diluted in microbial growth medium (Mueller Hinton Broth II, cation adjusted) resulting in a final concentration range of 0.063-64 μg/mL in serial two-fold dilution. In all cases the final DMSO concentration was less than 0.5%. Bacteria were added to 96-well microtitre plates containing the two-fold dilutions of the compounds; the final cell density was approximately 5×10^5 colony forming units/mL (CFU/mL). Plates were incubated at 37° C. for 18-24 hours and read visually. The MIC, i.e. the lowest concentration of the test compound that inhibited visible growth of the bacteria, was recorded. The same assay conditions were used when the compounds of this invention were tested in combination with β-lactamase inhibitors. While the compounds of this invention were serially diluted as described above, a constant concentration of the inhibitor of 4 mg/L was used.
(§2) Bacterial strains that were used to evaluate the antimicrobial activity using the MIC determination included but were not limited to E. coli clinical isolate, E. coli 8739, K. pneumoniae clinical isolate, K. pneumoniae 700603, E. cloacae clinical isolate, E. cloacae 700323, A. baumannii clinical isolate, A. baumannii 19606, P. aeruginosa clinical isolate, P. aeruginosa 9027.

For assay [2], the system named is A. baumannii 19606. The note with it: Acinetobacter baumannii, Mueller Hinton Broth II, 37° C., 18-24 hours, read-out: Strain8 MIC. The procedure:
as §1, §2

Assay [3] concerns E. cloacae 700323. The note with it: Enterobacter cloacae, Mueller Hinton Broth II, 37° C., 18-24 hours, read-out: Strain 6 MIC. Here is the method:
as §1, §2

In assay [4] the test system is E. cloacae clinical isolate. The note with it: Enterobacter cloacae, Mueller Hinton Broth II, 37° C., 18-24 hours, read-out: Strain5 MIC. Here is the method: as §1, §2
In assay [5] the test system is P. aeruginosa 9027. As to conditions: Pseudomonas aeruginosa, Mueller Hinton Broth II, 37° C., 18-24 hours, read-out: Strain 10 MIC. Here is the method:
as §1, §2

Assay [6] concerns E. coli clinical isolate. As to conditions: Escherichia coli, Mueller Hinton Broth II, 37° C., 18-24 hours, read-out: Strain 1 MIC. The procedure:
as §1, §2

In assay [7] the test system is K. pneumoniae 700603. As to conditions: Klebsiella pneumoniae, Mueller Hinton Broth II, 37° C., 18-24 hours, read-out: Strain 4 MIC. The procedure: as §1, §2
For assay [8], the system named is P. aeruginosa clinical isolate. As to conditions: Pseudomonas aeruginosa, Mueller Hinton Broth II, 37° C., 18-24 hours, read-out: Strain 9 MIC. The procedure:
as §1, §2

Assay [9] has as its system K. pneumoniae clinical isolate. The note with it: Klebsiella pneumoniae, Mueller Hinton Broth II, 37° C., 18-24 hours, read-out: Strain 3 MIC. The procedure:
as §1, §2

Assay [10] deals with E. coli 8739. As to conditions: Escherichia coli, Mueller Hinton Broth II, 37° C., 18-24 hours, read-out: Strain 2 MIC. The procedure:
as §1, §2

Experimental findings from patent US12516048B2, “B-lactam compounds, their preparation and use as antibacterial agents” (NINGXIA ACADEMY OF AGRICULTURE AND FORESTRY SCIENCES, priority 2020, dated 2026) are described below.

Broadly, the MIC is the lowest concentration found to suppress growth.

Some results are limits rather than exact numbers.

For the compound `C[C@H]1[C@H](NC(=O)/C(=N\OC(C)(C)C(=O)O)c2csc(N)n2)C(=O)N1S(=O)(=O)O` [AZT, Aztreonam, reference compound], the minimal inhibitory concentration (MIC) in assay [1] is above 64 µg/mL; in [2], 32 µg/mL; in assay [3], above 64 µg/mL; in assay [4], above 64 µg/mL; in assay [5] it was 16 µg/mL; in [6], above 64 µg/mL. For the same compound, the MIC was 64 µg/mL in [7], above 64 µg/mL in [8], 64 µg/mL in [9] and 16 µg/mL in assay [10].
`CC(C)(O/N=C(\C(=O)N[C@@H]1C(=O)N2C(C(=O)[O-])=C(C[n+]3ccccc3)CS[C@H]12)c1csc(N)n1)C(=O)O` [CAZ, Ceftazidime, reference compound]: the MIC in assay [1], in assay [2], in assay [3], in assay [4], in [5] and in [6] was above 64 µg/mL in each case. The MIC in assay [7], in assay [8], in assay [9] and in assay [10] was above 64 µg/mL in each case.
`Cc1sc(N)nc1/C(=N/O[C@@H](COc1ccc(C(=N)NC2CCNCC2)cc1)C(=O)O)C(=O)N[C@@H]1C(=O)N(OS(=O)(=O)O)C1(C)C` [Example 1, (S)-2-((((Z)-1-(2-Amino-5-methylthiazol-4-yl)-2-(((S)-2,2-dimethyl-4-oxo-1-(sulfooxy)azetidin-3-yl)amino)-2-oxoethylidene)amino)oxy)-3-(4-(N-(piperidin-4-yl)carbamimidoyl)phenoxy)propanoic acid]: the minimal inhibitory concentration (MIC) in [1] came to 32 µg/mL; in [2] it was 16 µg/mL; in assay [3], 32 µg/mL; in assay [4] it was 64 µg/mL; in assay [5] it was 8 µg/mL; in [6], 4 µg/mL. The MIC in assay [7] was 32 µg/mL; in [8], 16 µg/mL; in [9], 32 µg/mL; in assay [10], 4 µg/mL.
Take `Cc1sc(N)nc1/C(=N/O[C@@H](COc1ccc(C(=N)N[C@@H]2CCCNC2)cc1)C(=O)O)C(=O)N[C@@H]1C(=O)N(OS(=O)(=O)O)C1(C)C` [Example 2, (S)-2-((((Z)-1-(2-Amino-5-methylthiazol-4-yl)-2-(((S)-2,2-dimethyl-4-oxo-1-(sulfooxy)azetidin-3-yl)amino)-2-oxoethylidene)amino)oxy)-3-(4-(N-((R)-piperidin-3-yl)carbamimidoyl)phenoxy)propanoic acid]: the minimum inhibitory concentration (MIC) turned out to be 16 µg/mL in assay [1]; 16 µg/mL in [2]; 32 µg/mL in [3]; 64 µg/mL in assay [4]; 32 µg/mL in assay [5]; 4 µg/mL in assay [6]. Besides, the minimum inhibitory concentration (MIC) in assay [7] was 64 µg/mL; in assay [8] it was 8 µg/mL; in assay [9] it was 32 µg/mL; in [10] it was 2 µg/mL.
On to `Cc1sc(N)nc1/C(=N/O[C@@H](COc1ccc(C(=N)N[C@H]2CCNC2)cc1)C(=O)O)C(=O)N[C@@H]1C(=O)N(OS(=O)(=O)O)C1(C)C` [Example 3, (S)-2-((((Z)-1-(2-Amino-5-methylthiazol-4-yl)-2-(((S)-2,2-dimethyl-4-oxo-1-(sulfooxy)azetidin-3-yl)amino)-2-oxoethylidene)amino)oxy)-3-(4-(N-((S)-pyrrolidin-3-yl)carbamimidoyl)phenoxy)propanoic acid], for which the MIC in assay [1] amounted to 32 µg/mL; in assay [2], 32 µg/mL; in [3] it was 32 µg/mL; in [4], 64 µg/mL; in assay [5], 8 µg/mL; in [6] it was 4 µg/mL. Besides, the MIC came to 64 µg/mL in assay [7], 8 µg/mL in assay [8], 32 µg/mL in [9] and 4 µg/mL in assay [10].
Consider `Cc1sc(N)nc1/C(=N/O[C@@H](COc1ccc(C(=N)NC2CNC2)cc1)C(=O)O)C(=O)N[C@@H]1C(=O)N(OS(=O)(=O)O)C1(C)C` [Example 4, (S)-2-((((Z)-1-(2-Amino-5-methylthiazol-4-yl)-2-(((S)-2,2-dimethyl-4-oxo-1-(sulfooxy)azetidin-3-yl)amino)-2-oxoethylidene)amino)oxy)-3-(4-(N-(azetidin-3-yl)carbamimidoyl)phenoxy)propanoic acid], for which the MIC is 32 µg/mL in [1]; 16 µg/mL in assay [2]; 32 µg/mL in assay [3]; 32 µg/mL in assay [4]; 4 µg/mL in [5]; 4 µg/mL in [6]. For the same compound, the MIC in [7] is 64 µg/mL; in [8], 8 µg/mL; in assay [9] it was 32 µg/mL; in assay [10] it was 4 µg/mL.
With `Cc1sc(N)nc1/C(=N/O[C@@H](COc1ccc(C(=N)N[C@H]2CCCNC2)cc1)C(=O)O)C(=O)N[C@@H]1C(=O)N(OS(=O)(=O)O)C1(C)C` [Example 5, (S)-2-((((Z)-1-(2-Amino-5-methylthiazol-4-yl)-2-(((S)-2,2-dimethyl-4-oxo-1-(sulfooxy)azetidin-3-yl)amino)-2-oxoethylidene)amino)oxy)-3-(4-(N-((S)-piperidin-3-yl)carbamimidoyl)phenoxy)propanoic acid], the MIC in assay [1] was determined as 32 µg/mL; in assay [2] it was 16 µg/mL; in [3], 32 µg/mL; in assay [4], 64 µg/mL; in assay [5] it was 4 µg/mL; in [6] it was 4 µg/mL. Also, the minimal inhibitory concentration (MIC) was 64 µg/mL in assay [7], 4 µg/mL in [8], 32 µg/mL in assay [9] and 4 µg/mL in [10].
Take `Cc1sc(N)nc1/C(=N/O[C@@H](COc1ccc(C(=N)N[C@@H]2CCNC2)cc1)C(=O)O)C(=O)N[C@@H]1C(=O)N(OS(=O)(=O)O)C1(C)C` [Example 6, (S)-2-((((Z)-1-(2-Amino-5-methylthiazol-4-yl)-2-(((S)-2,2-dimethyl-4-oxo-1-(sulfooxy)azetidin-3-yl)amino)-2-oxoethylidene)amino)oxy)-3-(4-(N-((R)-pyrrolidin-3-yl)carbamimidoyl)phenoxy)propanoic acid]: the MIC was 8 µg/mL in assay [1]; 8 µg/mL in [2]; 4 µg/mL in [3]; 2 µg/mL in [4]; 2 µg/mL in assay [5]; 1 µg/mL in [6]. Besides, the minimum inhibitory concentration (MIC) was 1 µg/mL in [7], 2 µg/mL in assay [8], 1 µg/mL in [9] and 0.25 µg/mL in assay [10].
As for `CC1(C)[C@H](NC(=O)/C(=N\O[C@@H](COc2ccc(C(=N)N[C@@H]3CCNC3)cc2)C(=O)O)c2nc(N)sc2C(F)(F)F)C(=O)N1OS(=O)(=O)O` [Example 7, (S)-2-((((Z)-1-(2-Amino-5-(trifluoromethyl)thiazol-4-yl)-2-(((S)-2,2-dimethyl-4-oxo-1-(sulfooxy)azetidin-3-yl)amino)-2-oxoethylidene)amino)oxy)-3-(4-(N-((R)-pyrrolidin-3-yl)carbamimidoyl)phenoxy)propanoic acid], the minimal inhibitory concentration (MIC) was determined as 16 µg/mL in assay [1]; 16 µg/mL in assay [2]; 32 µg/mL in assay [3]; 32 µg/mL in [4]; 16 µg/mL in [5]; 32 µg/mL in assay [6]. Further, the MIC in assay [7] worked out at 8 µg/mL; in assay [8], 8 µg/mL; in assay [9], 16 µg/mL; in assay [10], 8 µg/mL.
As for `Cc1sc(N)nc1/C(=N/O[C@@H](COc1ccc(C(=N)N[C@@H]2CCNC2)cc1)C(=O)O)C(=O)N[C@@H]1C(=O)N(S(=O)(=O)O)[C@H]1C` [Example 8, (S)-2-((((Z)-1-(2-amino-5-methylthiazol-4-yl)-2-(((2S,3S)-2-methyl-4-oxo-1-sulfoazetidin-3-yl)amino)-2-oxoethylidene)amino)oxy)-3-(4-(N-((R)-pyrrolidin-3-yl)carbamimidoyl)phenoxy)propanoic acid], the MIC was determined as 32 µg/mL in assay [1]; 16 µg/mL in assay [2]; 32 µg/mL in [3]; 64 µg/mL in assay [4]; 1 µg/mL in assay [5]; 1 µg/mL in assay [6]. In addition, the MIC was 64 µg/mL in assay [7], 16 µg/mL in assay [8], 32 µg/mL in assay [9] and 0.5 µg/mL in assay [10].
